Where “and” joins values, the source holds several entries; their conditions need not be identical. Identical values can stand only once. Like-named read-outs stand apart in the source and are kept apart here.
Columns and labels:
Format in all cases: cell-based, Plasmodium falciparum
[1] = system: NF54^CTL parasites; assay: P. falciparum proliferation assay (72 h, flow cytometry, SYBR Green I/MitoTracker); conditions: for IC50: NF54, NF54CTL
Summary of the method: (§1)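 Predominantly ring-stage cultures at 0.3% parasitaemia, 1% haematocrit, in medium with 10% O+ human serum; compound exposure 72 h, DMSO <0.5% (v/v). Live parasites counted by flow cytometry with SYBR Green I and 200 nM MitoTracker Deep Red. IC50/IC90 from linear interpolation of dose-response data.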

[2] = system: Dd2-Polδ-PfATP4^G358S parasites; assay: P. falciparum proliferation assay (72 h, fluorescent DNA-intercalating dye)
Description: (§2) For experiments with all other parasites, the effects of compounds of interest on parasite proliferation was measured in 96-well plates containing serial dilutions of the compounds in culture medium, with a fluorescent DNA-intercalating dye used to detect surviving parasites. The assays were initiated with erythrocytes infected with predominantly ring-stage parasites, and the starting parasitaemia and haematocrit were both 1%.

[3] = system: HCR2 parasites (highly cipargamin-resistant clone 2); assay: as above; conditions: for Parasite proliferation (% of no-cipargamin control), MEAN: MEAN of 16 experiments; for IC50: Plasmodium falciparum
Description: as §2

[4] = system: Dd2-PfATP4^T418N,P990R parasites; assay: as above; conditions: for Parasite proliferation (% of no-cipargamin control), MEAN: MEAN of 16 experiments
Description: as §2

[5] = system: Dd2 parasites; assay: as above; conditions: for Parasite proliferation (% of no-cipargamin control), MEAN: MEAN of 16 experiments
Description: as §2

[6] = system: HCR1 parasites (highly cipargamin-resistant clone 1); assay: as above; conditions: for Parasite proliferation (% of no-cipargamin control), MEAN: MEAN of 16 experiments; for IC50: Plasmodium falciparum
Description: as §2

[7] = system: Dd2-Polδ parasites; assay: as above
Description: as §2

[8] = system: NF54^WT parasites; assay: microbe, parasite or virus in culture
Summary of the method: as §1

SMILES: C[C@H]1Cc2c([nH]c3cc(Cl)c(F)cc23)[C@@]2(N1)C(=O)Nc1ccc(Cl)cc12 [Cipargamin]
- FC (IC50) ([1]; NF54CTL compared to NF54WT): 1.0 fold
- FC (IC90) ([1]; NF54CTL compared to NF54WT): 1.0 fold
- IC90 ([1]; NF54CTL parasites, individual experiments, read-out: IC90 values): 3.6 nM and 3.4 nM
- IC90 ([1]; Plasmodium falciparum, NF54, NF54CTL parasites, individual experiments, read-out: IC90 values): 4.1 nM
- IC90 ([1]; Plasmodium falciparum, NF54, NF54CTL parasites, mean of the experiments, read-out: IC90 values, MEAN): 3.7 nM
- IC50 ([1]; Plasmodium falciparum, 10% human serum, read-out: IC50 ± SEM): 2.6 ± 0.1 nM
- IC50 ([1]; Plasmodium falciparum, MEAN, source data of Fig. 2, read-out: IC50 values, MEAN): 2.55 nM
- IC50 ([2]; Dd2-Polδ-PfATP4G358S, single experiments, source data of Fig. 2 (nM in Supplementary Table 1), read-out: IC50 values): 1140 nM and 1420 nM and 1580 nM and 1640 nM and 1670 nM and 1510 nM
- IC50 ([2]; Plasmodium falciparum, DD2, Dd2-Polδ-PfATP4G358S, MEAN, source data of Fig. 2, read-out: IC50 values, MEAN): 1420 nM
- IC50 ([2]; Plasmodium falciparum, DD2, Dd2-Polδ-PfATP4G358S, single experiments, source data of Fig. 2 (nM in Supplementary Table 1), read-out: IC50 values): 980 nM
- Parasite proliferation (% of no-cipargamin control), MEAN ([3]; HCR2, [Cipargamin] 100 nM): 99.1 % of no-cipargamin control
- Parasite proliferation (% of no-cipargamin control) ([3]; HCR2, [Cipargamin] 100 nM, single experiments 1-16): 100.1 % of no-cipargamin control and 100.0 % of no-cipargamin control and 96.3 % of no-cipargamin control and 89.0 % of no-cipargamin control
- Parasite proliferation (% of no-cipargamin control), MEAN ([3]; HCR2, [Cipargamin] 200 nM): 93.8 % of no-cipargamin control
- Parasite proliferation (% of no-cipargamin control), MEAN ([3]; HCR2, [Cipargamin] 400 nM): 90.7 % of no-cipargamin control
- Parasite proliferation (% of no-cipargamin control), MEAN ([3]; HCR2, [Cipargamin] 800 nM): 85.4 % of no-cipargamin control
- Parasite proliferation (% of no-cipargamin control), MEAN ([3]; HCR2, [Cipargamin] 1600 nM): 71.9 % of no-cipargamin control
- Parasite proliferation (% of no-cipargamin control), MEAN ([3]; HCR2, [Cipargamin] 3200 nM): 46.7 % of no-cipargamin control
- Parasite proliferation (% of no-cipargamin control), MEAN ([3]; HCR2, [Cipargamin] 6400 nM): 13.6 % of no-cipargamin control
- Parasite proliferation (% of no-cipargamin control), MEAN ([3]; HCR2, [Cipargamin] 25600 nM): -0.466 % of no-cipargamin control
- IC50 ([3]; HCR2, MEAN, source data of Fig. 2, read-out: IC50 values, MEAN): 2920 nM
- IC50 ([3]; read-out: Mean IC50 value ± SEM for growth inhibition, HCR2, Supplementary Table 1, Set 1): 2920 ± 200 nM
- Parasite proliferation (% of no-cipargamin control), MEAN ([4]; Dd2-PfATP4T418N,P990R, [Cipargamin] 0.195312 nM): 100.7 % of no-cipargamin control
- Parasite proliferation (% of no-cipargamin control), MEAN ([4]; Dd2-PfATP4T418N,P990R, [Cipargamin] 0.390625 nM): 102.0 % of no-cipargamin control
- Parasite proliferation (% of no-cipargamin control), MEAN ([4]; Dd2-PfATP4T418N,P990R, [Cipargamin] 0.78125 nM): 99.8 % of no-cipargamin control
- Parasite proliferation (% of no-cipargamin control), MEAN ([4]; Dd2-PfATP4T418N,P990R, [Cipargamin] 1.5625 nM): 99.9 % of no-cipargamin control
- Parasite proliferation (% of no-cipargamin control), MEAN ([4]; Dd2-PfATP4T418N,P990R, [Cipargamin] 3.125 nM): 94.7 % of no-cipargamin control
- Parasite proliferation (% of no-cipargamin control), MEAN ([4]; Dd2-PfATP4T418N,P990R, [Cipargamin] 6.25 nM): 78.8 % of no-cipargamin control
- Parasite proliferation (% of no-cipargamin control), MEAN ([4]; Dd2-PfATP4T418N,P990R, [Cipargamin] 25 nM): 1.2 % of no-cipargamin control
- IC50 ([4]; Dd2-PfATP4T418N,P990R, single experiments, source data of Fig. 2 (nM in Supplementary Table 1), read-out: IC50 values): 7.9 nM
- IC50 ([4]; Plasmodium falciparum, DD2, Dd2-PfATP4T418N,P990R, MEAN, source data of Fig. 2, read-out: IC50 values, MEAN): 9.17 nM
- IC50 ([4]; Plasmodium falciparum, DD2, Dd2-PfATP4T418N,P990R, Supplementary Table 1, Set 1, read-out: Mean IC50 value ± SEM for growth inhibition): < 10 nM
- Mean IC50 value ± SEM for growth inhibition ([5]; Dd2, Supplementary Table 1, Set 1): subnanomolar
- Parasite proliferation (% of no-cipargamin control), MEAN ([5]; Dd2, [Cipargamin] 0.195312 nM): 100.9 % of no-cipargamin control
- Parasite proliferation (% of no-cipargamin control), MEAN ([5]; Dd2, [Cipargamin] 0.390625 nM): 94.5 % of no-cipargamin control
- Parasite proliferation (% of no-cipargamin control), MEAN ([5]; Dd2, [Cipargamin] 0.78125 nM): 30.2 % of no-cipargamin control
- Parasite proliferation (% of no-cipargamin control), MEAN ([5]; Dd2, [Cipargamin] 1.5625 nM): 3.4 % of no-cipargamin control
- Parasite proliferation (% of no-cipargamin control), MEAN ([5]; Dd2, [Cipargamin] 3.125 nM): 0.3 % of no-cipargamin control
- Parasite proliferation (% of no-cipargamin control), MEAN ([5]; Dd2, [Cipargamin] 6.25 nM): 0.5 % of no-cipargamin control
- Parasite proliferation (% of no-cipargamin control), MEAN ([5]; Dd2, [Cipargamin] 25 nM): 0.0247 % of no-cipargamin control
- IC50 ([5]; Plasmodium falciparum, DD2, read-out: IC50 values, MEAN, Dd2, MEAN, source data of Fig. 2): 0.68 nM
- Parasite proliferation (% of no-cipargamin control), MEAN ([6]; HCR1, [Cipargamin] 100 nM): 98.5 % of no-cipargamin control
- Parasite proliferation (% of no-cipargamin control) ([6]; HCR1, [Cipargamin] 100 nM, single experiments 1-16): 100.9 % of no-cipargamin control and 100.0 % of no-cipargamin control and 87.1 % of no-cipargamin control and 88.2 % of no-cipargamin control
- Parasite proliferation (% of no-cipargamin control), MEAN ([6]; HCR1, [Cipargamin] 200 nM): 94.4 % of no-cipargamin control
- Parasite proliferation (% of no-cipargamin control), MEAN ([6]; HCR1, [Cipargamin] 400 nM): 91.8 % of no-cipargamin control
- Parasite proliferation (% of no-cipargamin control), MEAN ([6]; HCR1, [Cipargamin] 800 nM): 83.6 % of no-cipargamin control
- Parasite proliferation (% of no-cipargamin control), MEAN ([6]; HCR1, [Cipargamin] 1600 nM): 71.5 % of no-cipargamin control
- Parasite proliferation (% of no-cipargamin control), MEAN ([6]; HCR1, [Cipargamin] 3200 nM): 44.9 % of no-cipargamin control
- Parasite proliferation (% of no-cipargamin control), MEAN ([6]; HCR1, [Cipargamin] 6400 nM): 13.3 % of no-cipargamin control
- Parasite proliferation (% of no-cipargamin control), MEAN ([6]; HCR1, [Cipargamin] 25600 nM): -0.564 % of no-cipargamin control
- IC50 ([6]; HCR1, MEAN, source data of Fig. 2, read-out: IC50 values, MEAN): 2840 nM
- IC50 ([6]; read-out: Mean IC50 value ± SEM for growth inhibition, HCR1, Supplementary Table 1, Set 1): 2840 ± 190 nM
- IC50 ([7]; Dd2-Polδ, single experiments, source data of Fig. 2 (nM in Supplementary Table 1), read-out: IC50 values): 1.4 nM
- IC50 ([7]; Plasmodium falciparum, DD2, Dd2-Polδ, MEAN, source data of Fig. 2, read-out: IC50 values, MEAN): 1.43 nM
- IC50 ([7]; Plasmodium falciparum, DD2, parental Dd2-Polδ, paired with MMV665949-selected Culture 1, n = 3, read-out: IC50 value): 0.57 ± 0.02 nM
- IC90 ([8]; NF54WT parasites, individual experiments, read-out: IC90 values): 4.6 nM and 3.5 nM
- FC (IC50) ([8]; NF54WT, reference line): 1.0 fold
- FC (IC90) ([8]; NF54WT, reference line): 1.0 fold
- IC50 ([8]; NF54WT, single experiments, source data of Fig. 2 (nM in Supplementary Table 5), read-out: IC50 values): 2.8 nM and 2.5 nM and 2.6 nM
- IC90 ([8]; Plasmodium falciparum, NF54, NF54WT parasites, individual experiments, read-out: IC90 values): 3.6 nM
- IC90 ([8]; Plasmodium falciparum, NF54, NF54WT parasites, mean of the experiments, read-out: IC90 values, MEAN): 3.8 nM
- IC50 ([8]; Plasmodium falciparum, NF54, NF54WT, MEAN, source data of Fig. 2, read-out: IC50 values, MEAN): 2.64 nM
- IC50 ([8]; Plasmodium falciparum, NF54, NF54WT, single experiments, source data of Fig. 2 (nM in Supplementary Table 5), read-out: IC50 values): 2.7 nM

From paper PMC9525273 (Nature Communications, 2022)
